Test results from PubChem BioAssay AID1259408 (Genetic Toxicology Data Bank (GENE-TOX), 2018).
Calls of active or inactive are those of the source. No rule for the calls is given here.

Test system: GENE-TOX genotoxicity assays, various organisms and cells
Assay: GENE-TOX mutagenicity studies

Cc1c(N)nc([C@H](CC(N)=O)NC[C@H](N)C(N)=O)nc1C(=O)N[C@H](C(=O)N[C@H](C)[C@@H](O)[C@H](C)C(=O)N[C@H](C(=O)NCCc1nc(-c2nc(C(=O)NCCC[S+](C)C)cs2)cs1)[C@@H](C)O)[C@@H](OC1OC(CO)C(O)C(O)C1OC1OC(CO)C(O)C(OC(N)=O)C1O)c1cnc[nH]1 (stereo not given in full)
mutagenic call (Species/Cell Type: Chinese hamster ovary (CHO) cells, Assay Type: Forward gene mutation at the HPRT locus, Assay Code: CHO+, Evaluation Type: Evaluation B (Post-1980)): active; positive | mutagenic call (Species/Cell Type: Human bone marrow, Assay Type: Chromosome aberrations in vivo, Assay Code: CY5+, Evaluation Type: Evaluation A (Pre-1980)): active; positive | mutagenic call (Species/Cell Type: Human cell culture, Assay Type: Chromosome aberrations in vitro, Assay Code: CYZ+, Evaluation Type: Evaluation A (Pre-1980)): active; positive | mutagenic call (Species/Cell Type: Human lymphocytes or leukocytes, Assay Type: Chromosome aberrations in vitro, Assay Code: CY7+D, Dose Response: With dose response, Evaluation Type: Evaluation A (Pre-1980)): active; positive | mutagenic call (Species/Cell Type: Human lymphocytes, Assay Type: Micronucleus test in vitro, chromosome aberrations, Assay Code: MN7+, Evaluation Type: Evaluation A (Pre-1980)): active; positive | mutagenic call (Species/Cell Type: Human lymphocytes, Assay Type: Sister-chromatid exchange (SCE) in vitro, Assay Code: SCL+, Evaluation Type: Evaluation B (Post-1980)): active; positive | mutagenic call (Species/Cell Type: Human lymphocytes, Assay Type: Sister-chromatid exchange (SCE) in vitro, Assay Code: SCL-, Evaluation Type: Evaluation A (Pre-1980)): inactive; negative | mutagenic call (Species/Cell Type: Human, Assay Type: Sister-chromatid exchange (SCE) in vitro, Assay Code: SC1+D, Dose Response: With dose response, Evaluation Type: Evaluation B (Post-1980)): active; positive | mutagenic call (Species/Cell Type: Human, Assay Type: Sister-chromatid exchange (SCE) in vitro, Assay Code: SC1-, Evaluation Type: Evaluation A (Pre-1980)): inactive; negative | mutagenic call (Species/Cell Type: Mammalian polychromatic erythrocytes, Assay Type: Micronucleus test, chromosome aberrations, Assay Code: MNT+, Evaluation Type: Evaluation B (Post-1980)): active; positive | mutagenic call (Species/Cell Type: Mammalian polychromatic erythrocytes, Assay Type: Micronucleus test, chromosome aberrations, Assay Code: MNTT, Evaluation Type: Evaluation A (Pre-1980)): no conclusion | mutagenic call (Species/Cell Type: Mouse (C3H/10T1/2) cells, Assay Type: Cell transformation, Assay Code: CTH+, Evaluation Type: Evaluation A (Pre-1980)): active; positive | mutagenic call (Species/Cell Type: Nonhuman, Assay Type: Chromosome aberrations in vitro, Assay Code: CY&+, Evaluation Type: Evaluation A (Pre-1980)): active; positive | call (Species/Cell Type: Nonhuman, Assay Type: In vivo carcinogenicity studies, Assay Code: CCGT, Evaluation Type: Evaluation A (Pre-1980)): no conclusion | mutagenic call (Species/Cell Type: Nonhuman, Assay Type: Sister-chromatid exchange (SCE) in vitro, Assay Code: SC2+D, Dose Response: With dose response, Evaluation Type: Evaluation A (Pre-1980)): active; positive | mutagenic call (Species/Cell Type: Nonhuman, Assay Type: Sister-chromatid exchange (SCE) in vitro, Assay Code: SC2+D, Dose Response: With dose response, Evaluation Type: Evaluation B (Post-1980)): active; positive | mutagenic call (Species/Cell Type: Nonhuman, Assay Type: Sister-chromatid exchange (SCE) in vivo, Assay Code: SC3+D, Dose Response: With dose response, Evaluation Type: Evaluation B (Post-1980)): active; positive | mutagenic call (Species/Cell Type: Saccharomyces cerevisiae, Assay Type: Forward gene mutation, Assay Code: YEF+, Evaluation Type: Evaluation A (Pre-1980)): active; positive | mutagenic call (Species/Cell Type: Saccharomyces cerevisiae, Assay Type: Mitotic recombination or gene conversion, Assay Code: YEC+, Evaluation Type: Evaluation A (Pre-1980)): active; positive | mutagenic call (Species/Cell Type: Saccharomyces cerevisiae, Assay Type: Mitotic recombination or gene conversion, Assay Code: YEH+, Evaluation Type: Evaluation A (Pre-1980)): active; positive | mutagenic call (Species/Cell Type: Saccharomyces cerevisiae, Assay Type: Reverse gene mutation, Assay Code: YER+, Evaluation Type: Evaluation A (Pre-1980)): active; positive | mutagenic call (Species/Cell Type: Vicia faba, Assay Type: Chromosome aberrations, Assay Code: VIC+, Evaluation Type: Evaluation A (Pre-1980)): active; positive

Cn1sc(Cl)cc1=O
mutagenic call (Species/Cell Type: Mammalian polychromatic erythrocytes, Assay Type: Micronucleus test, chromosome aberrations, Assay Code: MNT-, Evaluation Type: Evaluation B (Post-1980)): inactive; negative

Cc1ccc2cc3c(c4c2c1CC4)[C@@H](O)[C@@H](O)c1ccccc1-3
mutagenic call (Species/Cell Type: Chinese hamster lung (V79) cells, Assay Type: Forward gene mutation at the HPRT or ouabain locus, Assay Code: V79+, Evaluation Type: Evaluation A (Pre-1980)): active; positive | mutagenic call (Species/Cell Type: Mouse prostate cells, Assay Type: Cell transformation, Assay Code: CTMT, Evaluation Type: Evaluation A (Pre-1980)): no conclusion

CN(C)c1nc(N(C)C)nc(N(C)C)n1
mutagenic call (Species/Cell Type: Drosophila melanogaster, Assay Type: Sex-linked recessive lethal gene mutation, Assay Code: SRL+, Evaluation Type: Evaluation A (Pre-1980)): active; positive

CC1CN(N=O)CCN1N=O (stereo not given)
mutagenic call (Species/Cell Type: Salmonella typhimurium (one or more of the five standard strains: TA98, TA100, TA1535, TA1537, and TA1538), Assay Type: Histidine reverse gene mutation, Ames assay, Assay Code: SAL+*, Activation: With metabolic activation, Evaluation Type: Evaluation A (Pre-1980)): active; positive

C[C@@H]1C[C@@H]2OC(=O)[C@]3(C)[C@H]2[C@@H](OC3(C)O)[C@]2(C)C(=O)C=C[C@@H]12 (stereo not given in full)
mutagenic call (Species/Cell Type: Salmonella typhimurium (one or more of the five standard strains: TA98, TA100, TA1535, TA1537, and TA1538), Assay Type: Histidine reverse gene mutation, Ames assay, Assay Code: SAL-, Evaluation Type: Evaluation A (Pre-1980)): inactive; negative

C#CC(OC(=O)NC1CCCCC1)(c1ccccc1)c1ccc(C)c(C)c1 (stereo not given)
mutagenic call (Species/Cell Type: Human diploid fibroblasts, Assay Type: Unscheduled DNA synthesis (UDS) in vitro, DNA effects, Assay Code: UDH+, Evaluation Type: Evaluation A (Pre-1980)): active; positive | mutagenic call (Species/Cell Type: Salmonella typhimurium (one or more of the five standard strains: TA98, TA100, TA1535, TA1537, and TA1538), Assay Type: Histidine reverse gene mutation, Ames assay, Assay Code: SAL+, Evaluation Type: Evaluation A (Pre-1980)): active; positive
